Data on 5 compounds can be found in ChEMBL document CHEMBL5512689, “Discovery of Clinical Candidate PF-06648671: A Potent γ-Secretase Modulator for the Treatment of Alzheimer's Disease” (J Med Chem, 2024).

Series [1] can be described thus: Drug penetration in rat assessed as Unbound brain-to-plasma concentration ratio. The class given is ADME, cell-free. The note with it: read-out: K(p,uu,brain).
A short description of series [2]: Lipophilicity, log D of the compound. Particulars: octanol/water. The class given is physicochemical.
Series [3] is described as follows: Lipophilicity, log D of the compound by shake flask method. The note with it: octanol/water. The class given is physicochemical.
Series [4] can be described thus: Kinetic solubility of compound at pH 6.5. The class given is physicochemical. Particulars: buffer, read-out: Kinetic_solubility.
Series [5] can be described thus: Apparent permeability across apical to basolateral side in dog RRCK cells. The class given is ADME, cell-based, Canis lupus familiaris, MDCKII-LE. The note with it: MDCK.
The nature of series [6]: Volume of distribution at steady state in rat at 1 mg/kg, iv. The class given is ADME, organism-based. Particulars: in vivo, read-out: Vdss.
The nature of series [7]: Volume of distribution at steady state in dog at 1 mg/kg, iv. The class given is ADME, organism-based, Canis lupus familiaris. Particulars: in vivo, read-out: Vdss.
A short description of series [8]: Volume of distribution at steady state in human at 1 mg/kg, iv. The class given is ADME, organism-based. Particulars: in vivo, read-out: Vdss.
The nature of series [9]: Oral bioavailability in rat at 5 mg/kg. Particulars: in vivo. The class given is ADME, organism-based.
The nature of series [10]: Oral bioavailability in dog at 5 mg/kg. Particulars: in vivo. The class given is ADME, organism-based, Canis lupus familiaris.
Series [11] can be described thus: Oral bioavailability in human at 5 mg/kg. The class given is ADME, organism-based. The note with it: in vivo.
Series [12] in a line: Ratio of drug concentration in brain to plasma in rat at 10 mg/kg, po. The class given is ADME, organism-based. Particulars: read-out: BPR.
Series [13] is described as follows: Drug penetration in human assessed as Unbound brain-to-plasma concentration ratio. The class given is ADME, cell-free. Particulars: read-out: K(p,uu,brain).
Series [14] in a line: Drug penetration in Non human primate assessed as unbound brain-to-plasma concentration ratio. The class given is ADME, cell-free. The note with it: primates, read-out: K(p,uu,brain).

One may read the logD as the decadic logarithm of the distribution of all forms, ionised or not, between an organic phase and buffer at a given pH. One may read the Papp A→B as the apparent permeability from the apical to the basolateral side of a cell layer. Broadly, the bioavailability is the share of a dose that reaches the circulation, judged against a reference dose that is usually intravenous. Low values mean little systemic uptake, high ones much systemic uptake.

Each structure is given as a SMILES string. ≈ marks a conversion by molar mass, not a printed value.

In the case of `Cc1cn(-c2ccc3n(c2=O)CCN([C@@H](C)[C@@H]2CC[C@H](c4ccc(C(F)(F)F)cc4)O2)C3=O)cn1`, the Kp uu in series [1] came to 0.5.
On to `Cc1cn(-c2ccc3n(c2=O)CCN([C@@H](C)[C@@H]2CC[C@H](c4cc(F)c(Cl)cc4C(F)(F)F)O2)C3=O)cn1`, for which the results for the Kp uu in series [1] and in [13] were 0.7 and 1, respectively. Further, the figures for the logD in [2] and in [3] were 5 and 4.2, respectively. For the same compound, the solubility kinetic in series [4] is 44.8 µM (≈ 24.1 µg/mL). In addition, in [5], the Papp A→B is 5.8 ×10⁻⁶ cm/s. In addition, the Vd is 0.8 L/kg in series [6], 0.7 L/kg in series [7] and 1.3 L/kg in series [8]. In addition, the bioavailability in [9] came to 67%; in series [10], 88%; in series [11], 60%. In series [12], the Kp was found to be 1.5.
Consider `Cc1cn(-c2ccc3n(c2=O)CCN([C@@H](C)[C@@H]2CC[C@H](c4cc(F)c(C(F)(F)F)c(F)c4)O2)C3=O)cn1`, for which, in series [1], the Kp uu worked out at 0.08.
On to `Cc1cn(-c2ccc3n(c2=O)CCN([C@@H](C)[C@@H]2CC[C@H](c4ccc(Cl)cc4C(F)(F)F)O2)C3=O)cn1`, for which the Kp uu in [1] is 0.5; in series [14], 1.
On to `Cc1cn(-c2ccc3n(c2=O)CCN([C@@H](C)[C@@H]2CC[C@H](c4ccc(C(F)(F)F)c(F)c4F)O2)C3=O)cn1`, for which, in series [1], the Kp uu came out at 0.5.
